What was measured:
[1] = biological target: T1, Staphylococcus aureus McsB (Staphylococcus aureus, UniProt Q2G0P6); assay: biochemical; set-up: Thermal shift assay (SYPRO Orange) of purified His-tagged McsB, melting temperature shift versus DMSO; details: TSA, purified McsB
T1 construct: full length, His-tagged, pET-28a(+), expressed in E. coli BL21(DE3), Ni-NTA purified, ~42 kDa; tag kept (anti-His blot); E. coli lysate containing it used for CETSA
Procedure: The thermal shift assay (TSA) was performed by incubating 0.1 µg/µl of purified McsB in assay buffer (50 mM sodium phosphate, 300 mM NaCl, pH 7.4) with 10X SYPRO Orange fluorescent dye (ThermoFisher Scientific, USA) in a final reaction volume of 20 µl. For primary screening, compounds from the Pandemic Response Box were tested in a pooled format (10 compounds per pool at 10 µM each, 40 pools total). Each pool was incubated with the protein-dye mixture for 1 h at 4 °C, followed by thermal denaturation (25–99 °C, at a ramp rate of 0.5 °C/s). Fluorescence was monitored at 470/586 nm (excitation/emission) using a QuantStudio 5 Real-Time PCR System (Applied Biosystems, ThermoFisher Scientific, USA). Compounds from pools that induced a significant increase in McsB melting temperature (Tm) relative to a DMSO control– indicating engagement with the target protein– were further evaluated individually at 10 µM. All Tm values were determined from derivative curves (dF/dT) using Protein Thermal Shift Software v1.4 (ThermoFisher Scientific, USA) and represent the average of at least three independent replicates (n ≥ 3). Recombinant McsB was expressed in E. coli BL21(DE3) cells and purified using Ni-NTA resin. SDS-PAGE and western blot analysis confirmed the isolation of a ~ 42 kDa His-tagged protein (Fig. 1), consistent with previous reports. The Pandemic Response Box was divided into 40 pools containing 10 compounds each and screened for stabilizing ligands of the purified McsB using TSA. Three groups- B4, C3 and E3- produced the most pronounced increases in McsB melting temperature, elevating it from 54.5 °C to 63.1, 64.0 and 62.8 °C, respectively (Fig. 2A). To identify the active compounds, we screened the 30 individual compounds from these pools, and found nine compounds that increased McsB melting temperature by 0.5–1.2 °C (Fig. 2B and C). Of these, seven induced statistically significant shifts, with MMV1593539 yielding the greatest stabilization (ΔTm = 1.2 ± 0.1 °C, p < 0.0001).

[2] = biological target: T1, Staphylococcus aureus McsB; set-up: CETSA, anti-His western blot, shift of McsB aggregation temperature; details: CETSA, aggregation temperature shift; binder

T1 sequence (Q2G0P6 whole entry): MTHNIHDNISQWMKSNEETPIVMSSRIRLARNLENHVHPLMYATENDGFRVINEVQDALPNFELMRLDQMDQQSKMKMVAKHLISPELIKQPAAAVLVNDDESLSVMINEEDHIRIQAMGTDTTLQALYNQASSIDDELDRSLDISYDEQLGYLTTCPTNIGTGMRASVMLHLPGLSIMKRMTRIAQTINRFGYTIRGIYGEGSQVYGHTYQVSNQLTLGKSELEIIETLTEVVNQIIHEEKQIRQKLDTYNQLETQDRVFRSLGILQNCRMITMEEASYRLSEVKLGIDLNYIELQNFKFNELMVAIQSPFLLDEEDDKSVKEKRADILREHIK

SMILES	ΔTm at 10 µM [1] [°C]	ΔTagg [2] [°C]
CCCC(=O)OCCc1ccccc1 [MMV1578899, 2-phenylethyl butanoate 2-phenylethyl butanoate]	0.9 ± 0.412	0.78 ± 0.339
Nc1nc(-c2ccccc2)nc2[nH]nc(Nc3ccc(C(F)(F)F)cc3)c12 [MMV1633968, 6-phenyl-3-N-[4-(trifluoromethyl)phenyl]-1H-pyrazolo[3,4-d]pyrimidine-3,4-diamine]	0.78 ± 0.081	
Cn1cc(NC(=O)c2cc(NC(=O)c3ccc(/C=C/c4cnc5ccccc5c4)cc3)cn2C)cc1C(=O)NCCN1CCOCC1 [MMV1634391]	0.473 ± 0.374	
Nc1nc2c(Cc3cccnc3)c[nH]c2c(=O)[nH]1 [MMV1782355]	0.677 ± 0.098	0.63 ± 0.54
